≈ marks a conversion by molar mass, not a printed value.
Tested on: G(−) bacterial strains
Assay: Dilution antimicrobial susceptibility tests (MIC, NCCLS agar dilution / broth dilution)
Format: cell-based, Gram-negative organisms
Settings: unit assumed
Protocol: The MIC (minimum inhibitory concentration) was determined by the NCCLS (National Committee for Clinical Laboratory Standards) methods 2000. Methods for dilution antimicrobial susceptibility testing for bacteria that growth aerobically (M7-A5, vol. 20, No. 2). The agar dilution method for determining antimicrobial susceptibility was carried out using Mueller-Hinton agar. A final inoculum of 10^4 CFU/spot was applied with an inoculation device. Broth dilution tests were performed with 5×10^5 CFU/well in 96 well plates. The susceptibilities of streptococci were determined by Mueller-Hinton agar supplemented with 5% sheep blood. All assays were run with the indicated control strains, available from the ATCC (American Type Culture Collection, Rockville, Md.).
Abbreviations used in Table 1 are defined as follows: Cf-R: Ceftazidime Resistance, Ci-R: Ciprofloxacin Resistance, Gen-R: Gentamycin Resistance, Imp-R: Imipenem Resistance, Mp-R: Meropenem Resistance, Ofx-R: Ofloxacin Resistance, B+: β-lactamase Production, AmpC: AmpC-lactamase Hyper production, CBPase: Carbapenemase Production.

[1] = strain #1 Acinetobacter calcoaceticus
[2] = strain #2 Acinetobacter baumannii, Cf-R, Ci-R
[3] = strain #3 Acinetobacter baumannii, Cf-R, Ci-R, Mp-I
[4] = strain #4 Acinetobacter baumannii, Cf-R, Imp-I, CBPase
[5] = strain #7 Enterobacter aerogenes
[6] = strain #8 Enterobacter cloacae, Cf-R, B+
[7] = strain #9 Enterobacter cloacae, Cf-R
[8] = strain #10 Escherichia coli, Ci-R
[9] = strain #11 Escherichia coli, Ci-R, AmpC
[10] = strain #15 Klebsiella pneumoniae
[11] = strain #16 Moraxella catarrhalis
[12] = strain #21 Providencia rettgeri
[13] = strain #22 Salmonella typhimurium
[14] = strain #25 Shigella dysenteriae
[15] = strain #28 Stenotrophomonas maltophilia
[16] = strain #29 Pseudomonas aeruginosa
[17] = strain #30 Pseudomonas aeruginosa
[18] = strain #31 Pseudomonas aeruginosa, Ofx-R
[19] = strain #32 Pseudomonas aeruginosa, Cf-R
[20] = strain #33 Pseudomonas aeruginosa, Ci-R
[21] = strain #34 Pseudomonas aeruginosa, Gen-R
[22] = strain #35 Pseudomonas aeruginosa, Ip-R
[23] = strain #36 Pseudomonas aeruginosa, Cf-R, Ci-R, Mp-R

Row | SMILES | MIC [1] | MIC [2] | MIC [3] | MIC [4] | MIC (strain #5 Citrobacter diversus) | MIC (strain #6 Citrobacter freundii) | MIC [5] | MIC [6] | MIC [7] | MIC [8] | MIC [9] | MIC (strain #12 Escherichia coli) | MIC (strain #13 Escherichia coli) | MIC (strain #14 Klebsiella oxytoca) | MIC [10] | MIC [11] | MIC (strain #17 Morganella Morganii) | MIC (strain #18 Morganella Morganii) | MIC (strain #19 Proteus vulgaris) | MIC (strain #20 Proteus mirabilis) | also measured
1 | C[C@@H](O)C1C(=O)N2C(C(=O)O)=C(CN3CC[C@H](NC(=O)C(F)(F)F)C3)[C@H](C)C12 (stereo partly drawn) [Compound 37] | 2 µg/mL (≈ 4.93 µM) | 4 µg/mL (≈ 9.87 µM) | 8 µg/mL (≈ 19.7 µM) | 4 µg/mL (≈ 9.87 µM) | 0.5 µg/mL (≈ 1.23 µM) | 0.5 µg/mL (≈ 1.23 µM) | 2 µg/mL (≈ 4.93 µM) | 0.5 µg/mL (≈ 1.23 µM) | 1 µg/mL (≈ 2.47 µM) | 0.5 µg/mL (≈ 1.23 µM) | 0.5 µg/mL (≈ 1.23 µM) | 0.5 µg/mL (≈ 1.23 µM) | 0.5 µg/mL (≈ 1.23 µM) | 0.5 µg/mL (≈ 1.23 µM) | 1 µg/mL (≈ 2.47 µM) | ≤ 0.008 µg/mL | 2 µg/mL (≈ 4.93 µM) | 2 µg/mL (≈ 4.93 µM) | 1 µg/mL (≈ 2.47 µM) | 0.5 µg/mL (≈ 1.23 µM) | MIC [12]: 1 µg/mL (≈ 2.47 µM); MIC [13]: 0.5 µg/mL (≈ 1.23 µM); MIC (strain #23 Serratia marcescens): 1 µg/mL (≈ 2.47 µM); MIC (strain #24 Serratia marcescens): 2 µg/mL (≈ 4.93 µM); MIC [14]: 0.5 µg/mL (≈ 1.23 µM); MIC (strain #26 Shigella sonnei): 0.5 µg/mL (≈ 1.23 µM); MIC (strain #27 Shigella flexneri): 0.25 µg/mL (≈ 0.617 µM); MIC [15]: 1 µg/mL (≈ 2.47 µM); MIC [16]: 8 µg/mL (≈ 19.7 µM); MIC [17]: 8 µg/mL (≈ 19.7 µM); MIC [18]: 4 µg/mL (≈ 9.87 µM); MIC [19]: 8 µg/mL (≈ 19.7 µM); MIC [20]: 8 µg/mL (≈ 19.7 µM); MIC [21]: 8 µg/mL (≈ 19.7 µM); MIC [22]: 16 µg/mL (≈ 39.5 µM); MIC [23]: 32 µg/mL (≈ 78.9 µM)
2 | CN[C@H]1CCN(CC2=C(C(=O)O)N3C(=O)C([C@@H](C)O)C3[C@H]2C)C1 (stereo partly drawn) [Compound 43] | 0.5 µg/mL (≈ 1.55 µM) | 1 µg/mL (≈ 3.09 µM) | 4 µg/mL (≈ 12.4 µM) | 4 µg/mL (≈ 12.4 µM) | 0.25 µg/mL (≈ 0.773 µM) | 0.25 µg/mL (≈ 0.773 µM) | 1 µg/mL (≈ 3.09 µM) | 0.25 µg/mL (≈ 0.773 µM) | 0.5 µg/mL (≈ 1.55 µM) | 0.25 µg/mL (≈ 0.773 µM) | 0.25 µg/mL (≈ 0.773 µM) | 0.25 µg/mL (≈ 0.773 µM) | 0.25 µg/mL (≈ 0.773 µM) | 0.5 µg/mL (≈ 1.55 µM) | 0.5 µg/mL (≈ 1.55 µM) | ≤ 0.008 µg/mL | 2 µg/mL (≈ 6.18 µM) | 2 µg/mL (≈ 6.18 µM) | 1 µg/mL (≈ 3.09 µM) | 0.25 µg/mL (≈ 0.773 µM) | MIC [12]: 1 µg/mL (≈ 3.09 µM); MIC [13]: 0.5 µg/mL (≈ 1.55 µM); MIC (strain #23 Serratia marcescens): 1 µg/mL (≈ 3.09 µM); MIC (strain #24 Serratia marcescens): 1 µg/mL (≈ 3.09 µM); MIC [14]: 0.5 µg/mL (≈ 1.55 µM); MIC (strain #26 Shigella sonnei): 0.25 µg/mL (≈ 0.773 µM); MIC (strain #27 Shigella flexneri): 0.25 µg/mL (≈ 0.773 µM); MIC [15]: 0.5 µg/mL (≈ 1.55 µM); MIC [16]: 4 µg/mL (≈ 12.4 µM); MIC [17]: 2 µg/mL (≈ 6.18 µM); MIC [18]: 1 µg/mL (≈ 3.09 µM); MIC [19]: 4 µg/mL (≈ 12.4 µM); MIC [20]: 4 µg/mL (≈ 12.4 µM); MIC [21]: 4 µg/mL (≈ 12.4 µM); MIC [22]: 8 µg/mL (≈ 24.7 µM); MIC [23]: 16 µg/mL (≈ 49.5 µM)
3 | C[C@@H](O)C1C(=O)N2C(C(=O)O)=C(CN3CC[C@H](N(C)C)C3)[C@H](C)C12 (stereo partly drawn) [Compound 46] | 1 µg/mL (≈ 2.96 µM) | 2 µg/mL (≈ 5.93 µM) | 4 µg/mL (≈ 11.9 µM) | 4 µg/mL (≈ 11.9 µM) | 0.25 µg/mL (≈ 0.741 µM) | 0.5 µg/mL (≈ 1.48 µM) | 1 µg/mL (≈ 2.96 µM) | 0.25 µg/mL (≈ 0.741 µM) | 0.5 µg/mL (≈ 1.48 µM) | 0.25 µg/mL (≈ 0.741 µM) | 0.25 µg/mL (≈ 0.741 µM) | 0.25 µg/mL (≈ 0.741 µM) | 0.25 µg/mL (≈ 0.741 µM) | 0.5 µg/mL (≈ 1.48 µM) | 0.5 µg/mL (≈ 1.48 µM) | ≤ 0.008 µg/mL | 2 µg/mL (≈ 5.93 µM) | 2 µg/mL (≈ 5.93 µM) | 1 µg/mL (≈ 2.96 µM) | 0.25 µg/mL (≈ 0.741 µM) | MIC [12]: 1 µg/mL (≈ 2.96 µM); MIC [13]: 0.25 µg/mL (≈ 0.741 µM); MIC (strain #23 Serratia marcescens): 1 µg/mL (≈ 2.96 µM); MIC (strain #24 Serratia marcescens): 1 µg/mL (≈ 2.96 µM); MIC [14]: 0.5 µg/mL (≈ 1.48 µM); MIC (strain #26 Shigella sonnei): 0.25 µg/mL (≈ 0.741 µM); MIC (strain #27 Shigella flexneri): 0.25 µg/mL (≈ 0.741 µM); MIC [15]: 0.5 µg/mL (≈ 1.48 µM); MIC [16]: 4 µg/mL (≈ 11.9 µM); MIC [17]: 4 µg/mL (≈ 11.9 µM); MIC [18]: 1 µg/mL (≈ 2.96 µM); MIC [19]: 4 µg/mL (≈ 11.9 µM); MIC [20]: 4 µg/mL (≈ 11.9 µM); MIC [21]: 4 µg/mL (≈ 11.9 µM); MIC [22]: 16 µg/mL (≈ 47.4 µM); MIC [23]: 32 µg/mL (≈ 94.8 µM)

Source: US9937151B2, “Carbapenem antibacterials with gram-negative activity” (priority 2010, dated 2018)
